Series [1] relates to human corona virus. The conditions noted are these: cited from earlier work.
Series [2] concerns influenza viruses. The conditions noted are these: cited from earlier work.
Series [3] relates to adenovirus. The conditions noted are these: cited from earlier work.
The test system of series [4] is rhinovirus. The following applies: in particular human tracheal epithelial cells, rhinovirus group 14; cited from earlier work.
The subject of series [5] is ICAM-1. The conditions noted are these: treated cells; cited from earlier work.
For series [6] the following is noted: in vivo, po; cited from earlier work.
On the set-up of series [7]: species or system rats. The conditions noted are these: rat, in vivo, iv, 10 mg/kg. The text has this: FIG. 4 graphically depicts the mean whole blood concentration of HCQ following single day intravenous doses to male and female rats.
(§1) For purposes of illustration, the effects of targeted delivery as opposed to systemic delivery of a representative anti-malarial, hydroxychloroquine, for prevention of rhinovirus infection is compared. As shown in Tables 1 and 2 and in FIG. 3, the effective inhibitory concentrations of this agent ranges from about 50 to 1000 microM (or about 20 to 400 micrograms/ml). Safe oral dosing of anti-malarials, such as chloroquine and hydroxychloroquine yields serum levels far below these ranges: 0.6 to 0.9 microM for chloroquine and 1.4 to 1.5 microM for hydroxychloroquine (MacKenzie, A H, “Pharmacologic actions of the 4-aminoquinoline compounds”, Am J Med, 1983, July: 5-10). Moreover, the inventor has noted that oral or systemic administration of HCQ cannot provide adequate plasma levels of HCQ to achieveefficacious results. Even at doses nearly twice that used in humans, peak serum concentrations following intravenous of administration of 10 mg/kg HCQ in rats was only 2 mcg/ml (FIG. 4); in dogs, peak whole blood concentrations were less than 3 mcg/ml (FIG. 5).

The test system of series [8] is antigen-induced early (EAR) and late airway responses (LAR) and airway hyperresponsiveness (AHR). The conditions noted are these: aerosolized; total dose of only 10 mg/d; cited from earlier work.
Series [9] has as its system rhinovirus. Nature of the series: Blocking of rhinovirus infection of epithelial cells; effective inhibitory concentrations (Tables 1 and 2, FIG. 3). It is filed as cell-based.
From the text: (§2) Rhinovirus capable of viral replication causes the release of the pro-inflammatory […] chemokines, IP-10 and RANTES from infected epithelial cells.
as §1

Series [10] concerns IP-10 and RANTES. Nature of the series: HCQ preincubation of BEAS-2B epithelial cells exposed to HRV-16, assayed for IP-10 and RANTES. The conditions noted are these: for IP-10: 6 hours preincubation / IP-10: 24 hours preincubation / RANTES: 6 hours preincubation: BEAS-2B. It is filed as cell-based, human. The protocol: FIG. 2 depicts graphically the effect of varying concentrations of HCQ preincubation on the elaboration of […] and RANTES in BEAS-2B epithelial cells exposed to human rhinovirus-16.
as §2
(§3) For example, treatment with hydroxychloroquine blocks the elaboration of the pro-inflammatory chemokines, IP-10 and RANTES from both primary tonsillar and immortalized epithelial cell lines (Table 1 & 2, FIG. 1 & 2). Since these chemokines figure prominently in generation of inflammatory responses and symptoms, this effect has important therapeutic implications.

Details of series [11]: species or system dogs. The conditions noted are these: dog, in vivo, iv.
From the text: FIG. 5 graphically depicts the mean whole blood concentration of HCQ following single day intravenous doses to male and female dogs.
as §1

In series [12] the test system is Eosinophil. Put plainly: Eosinophil total superoxide production (FIG. 3). It is filed as cell-based. The text has this: FIG. 3 graphically depicts the effect of HCQ on Eosinophil total Superoxide production. In FIG. 3, nil refers to control, i.e., the absence of HCQ; PMA refers to phorbol myristic acetate; PAF refers to platelet activating factor, and SE refers to standard error of the mean. The data in FIG. 3 are presented as means±SE; n=3. The * indicates p<0.05; ** indicates p<0.01.
Anti-malarial agents also block the secondary aspects of rhinovirus infections. Without wishing to be bound, it is believed that they are inhibit by blocking the secondary events of viral infections.

Series [13] has as its system asthma. The conditions noted are these: oral; cited from earlier work.
Series [14] concerns IP-10/RANTES. Nature of the series: Effect of HCQ on IP-10/RANTES production in primary human epithelial cells with exposure to HRV-16. It is filed as cell-based.
From the text: FIG. 1 graphically depicts the effect of 50 μm HCQ in the elaboration of IP-10 and RANTES in primary human epithelial cells with exposure to human rhinovirus type 16.
as §2, §3

The conditions of series [15]: cited from earlier work.

Counter-ions that a name gives are not always drawn. Like-named read-outs stand apart in the source and are kept apart here.

For the compound `Cl.N` [ammonium chloride], in [1], the “infection of human corona virus” value is on record as “block infection”. Besides, the “cellular infection by influenza viruses” value in [2] is reported as “block cellular infection”. In [3], the “cellular infection by adenovirus” value was “block cellular infection”.
Consider `CO/C1=C\C(C)=C\[C@@H](C)[C@@H](O)[C@@H](C)C/C(C)=C/C=C/[C@H](OC)[C@@H]([C@@H](C)[C@@H](O)[C@H](C)[C@@]2(O)C[C@@H](O)[C@H](C)[C@@H](C(C)C)O2)OC1=O` [bafilomycin A1], for which the infection by rhinovirus entry in series [4] was “inhibit infection”. The “infection of human corona virus” value in series [1] was “block infection”. Also, in series [2], the “cellular infection by influenza viruses” value was “block cellular infection”. Besides, the “cellular infection by adenovirus” value in series [3] is given as “block cellular infection”. For the same compound, in series [5], the “expression of ICAM-1” value is listed as “reduces expression”.
Take hydroxychloroquine [HCQ]: in [6], the serum levels was 1400 to 1500 nM. In series [7], this compound displayed a peak serum concentrations of 2 µg/mL. For the same compound, the “effect in asthmatic sheep” value in [8] is “therapeutic effects”. The “rhinovirus infection of epithelial cells” value in series [9] is listed as “block rhinovirus infection”. Besides, the “IP-10: 6 hours preincubation” value worked out at 3084 pg/mL in series [10] (HRV-16 + 0.01 μM HCQ), 2914 pg/mL in series [10] (HRV-16 + 0.1 μM HCQ), 3045 pg/mL in series [10] (HRV-16 + 1 μM HCQ) and 31 pg/mL in series [10] (HRV-16 + 50 μM HCQ). The “IP-10: 24 hours preincubation” value in series [10] (HRV-16 + 0.01 μM HCQ) was 2506 pg/mL; in series [10] (HRV-16 + 0.1 μM HCQ) it was 1814 pg/mL; in series [10] (HRV-16 + 1 μM HCQ), 2098 pg/mL; in series [10] (HRV-16 + 50 μM HCQ), 31 pg/mL. Also, the “RANTES: 6 hours preincubation” value in series [10] (HRV-16 + 0.01 μM HCQ) is 3326 pg/mL; in series [10] (HRV-16 + 0.1 μM HCQ) it was 3128 pg/mL; in [10] (HRV-16 + 1 μM HCQ), 1994 pg/mL; in series [10] (HRV-16 + 50 μM HCQ) it was 0 pg/mL. The “release of pro-inflammatory CXC chemokines” value in series [10] (pre-incubation of immortalized epithelial cells (BEAS-2B)) was “has the same effect”; in series [14] (primary epithelial cells treated, then infected with RV), “do not release”. Also, in series [11], the “peak whole blood concentrations” value is on record as “less than 3 mcg/ml”. The “concentration at which IL-5 or PAF induced eosinophil superoxide is inhibited” value in [12] is reported as “at least 0.5 mM”; in [12] (conversion of the mM value), “about 200 mcg/ml”. In addition, the “time of treatment after which therapeutic effect begins” value in series [13] is given as more than 22 weeks. In series [14] (HRV-16 + 50 microM HCQ, 24 hours of preincubation, primary human epithelial cells), the “IP-10: hours of preincubation 24” value was 31 pg/mL. In series [14] (HRV-16 + 50 microM HCQ, 48 hours of preincubation, primary human epithelial cells), the “IP-10: hours of preincubation 48” value is 112 pg/mL. The “RANTES: hours of preincubation 48” value in [14] (HRV-16 + HCQ, 48 hours of preincubation, primary human epithelial cells) is 509 pg/mL.
For the compound `CCN(CC)CCCC(C)Nc1ccnc2cc(Cl)ccc12` (stereo not shown) [chloroquine], in series [2], the “cellular infection by influenza viruses” value was “block cellular infection”. Further, in series [3], the “cellular infection by adenovirus” value is given as “block cellular infection”. In addition, the “rhinovirus infection of epithelial cells” value in [9] is “block rhinovirus infection”.
Turning to `CCN(CCO)CCCC(C)Nc1ccnc2cc(Cl)ccc12` (stereo not shown) [hydroxychloroquine sulfate], the solubility in water result in series [15] is on record as “readily soluble in water”.

(Values after patent US20040167162A1, “Uses for anti-malarial therapeutic agents” (priority 2001, published 2004).)
